Tested on: naturally occurring appendicular osteosarcoma
Assay: Survival of dogs treated with neoadjuvant FasL plus standard of care versus carboplatin standard of care
Assay type: in vivo, dog
Details: whole treatment group
Procedure: Without being bound to theory, the principle of this treatment was based on a 10-day delay of therapy. The rationale for a 10-day delay approach was based on our preclinical data showing that there was statistically significant immunologic protection in animals immunized 10 days before challenge, as well as on the practicality of any delay of therapy approach. The experimental therapy was performed on Day 1, and dogs were followed to assess local and/or systemic toxicity for 10 days. At the end of the investigational period, dogs were treated using standard-of-care for OS.
The treatment sequence was as follows: On Day 0—history, physical, CBC, biochemical profile, urinalysis, chest radiographs, +/− bone scan. On Day 1, lesion biopsy and intratumoral injection. On Days 3, 7, and 10, toxicity monitoring with physical exam, CBC, biochemical profile, urinalysis, lameness evaluation and quality of life assessment. Day 10, amputation of affected limb.
Patient selection, treatment, and biological sample preparation were conducted as described in Example 1. Fifty seven dogs were enrolled in the study. Two dogs were diagnosed with intramedullary tumors that were not OS, two dogs were withdrawn from the study, two dogs had pre-existing metastasis, two were lost to follow up, and four died of other causes. The rest of the patients were followed until their death, which was then determined to be disease-related (“died of disease”) or unrelated to disease recurrence (“died of other causes”).
Table 1 depicts disease free interval (DFI), overall survival (OS), and percentage of dogs alive at 200 days following treatment and amputation that were treated with standard of care (carboplatin (carbo) control) and treated with FasL. Additionally, the disease free interval and overall survival of those dogs which had inflammation scores of 1 (low inflammation) as determined by histopathologic evaluation (see Example 1) or inflammation scores of 2-3 (moderate to high inflammation) is depicted. […]

## [NH2][Pt]1([NH2])[O]C(=O)C2(CCC2)C(=O)[O]1 [Carbo control, carboplatin]
  Disease Free Interval: 213
  Overall Survival: 231 days
200 days following treatment and amputation
  % Alive at 200 Days: 56%

— patent publication US10352936B2, “Use of tumor Fas expression to determine response to anti-cancer therapy” (ApopLogic Pharmaceuticals, Inc., priority 2011, dated 2019)
